57 compounds from patent US11820756B2, “Bradykinin B2 receptor antagonists” (Pharvaris Netherlands B.V., priority 2017, dated 2023) can be followed below.

pIC50: −log10 of the molar value.

A word on the pIC50: it is −log10 of the IC50, conventionally taken in molar units.

The assay addresses T1, human bradykinin B2 receptor (hB2R) (Homo sapiens, UniProt P30411).
T1 sequence (P30411 1-391): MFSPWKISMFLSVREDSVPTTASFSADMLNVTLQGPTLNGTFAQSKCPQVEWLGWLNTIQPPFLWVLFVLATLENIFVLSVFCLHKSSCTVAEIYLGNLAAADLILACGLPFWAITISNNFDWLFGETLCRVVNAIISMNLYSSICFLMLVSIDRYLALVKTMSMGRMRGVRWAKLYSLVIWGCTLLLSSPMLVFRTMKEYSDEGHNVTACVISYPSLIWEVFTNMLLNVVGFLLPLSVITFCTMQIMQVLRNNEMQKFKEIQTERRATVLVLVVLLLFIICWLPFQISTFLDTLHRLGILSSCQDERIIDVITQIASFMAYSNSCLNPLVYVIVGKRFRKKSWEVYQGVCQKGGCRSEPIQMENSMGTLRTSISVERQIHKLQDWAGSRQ
Kind of assay: cell-based human bradykinin B2 receptor calcium mobilization (hB2R-CaM) assay. The following applies: HTS041C cells, bradykinin at EC80, calcium mobilization; read-out: IC50-value towards human bradykinin B2 receptor (hB2R). The gist of the method:
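HTS041C cells stably expressing hB2R were serum-reduced, loaded with Calcium 6 dye and pre-incubated with compound (8-point, n=2, 0.1% DMSO) for 25 min at 37° C. Bradykinin was then added at EC80. IC50 came from a 4-parameter logistic fit of the max-min fluorescence signal (485/525 nm).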
A general note: Calcium assays in cells follow changes in intracellular calcium, usually with a dye or a luminescent sensor.
Regarding `CCn1ncnc1-c1cc(C)nc2c(OCc3c(Cl)cc(F)cc3[C@H](C)NC(=O)COC(F)(F)F)cccc12` [Compound 145], the pIC50 was not below 7.30.

`Cc1cc(-n2cc(F)cn2)c2cccc(OCc3c(Cl)cc(F)cc3[C@H](C)NC(=O)C(F)F)c2n1` [Compound 146]: the pIC50 was 6.60 to 7.29.

In the case of `Cc1cc(-c2ncnn2C)c2cccc(OCc3c(Cl)cc(F)cc3[C@H](C)NC(=O)C(F)F)c2n1` [Compound 147], the pIC50 was not below 7.30.

For `CC[C@H](NC(=O)C(F)F)c1cc(F)cc(Cl)c1COc1cccc2c(-c3ncnn3C)cc(C)nc12` [Compound 148], the pIC50 was not below 7.30.

`CC[C@H](NC(=O)c1coc(C)n1)c1cc(F)cc(Cl)c1COc1cccc2c(-c3ncnn3C)cc(C)nc12` [Compound 149]: the negative-log IC50 (pIC50) is not below 7.30.

As to `CC[C@H](NC(=O)c1ccon1)c1cc(F)cc(Cl)c1COc1cccc2c(-c3ncnn3C)cc(C)nc12` [Compound 150], the pIC50 is not below 7.30.

With `CC[C@H](NC(=O)C(F)F)c1cc(F)cc(Cl)c1COc1cccc2c(-n3cc(F)cn3)cc(C)nc12` [Compound 151], the negative logarithm of the IC50 (pIC50) was 6.60 to 7.29.

For the compound `CC[C@H](NC(=O)c1coc(C)n1)c1cc(F)cc(Cl)c1COc1cccc2c(-n3cc(F)cn3)cc(C)nc12` [Compound 152], the pIC50 is 6.60 to 7.29.

In the case of `CC[C@H](NC(=O)c1ccon1)c1cc(F)cc(Cl)c1COc1cccc2c(-n3cc(F)cn3)cc(C)nc12` [Compound 153], the pIC50 was 6.60 to 7.29.

In the case of `CC[C@H](NC(=O)c1cocn1)c1cc(F)cc(Cl)c1COc1cccc2c(-c3ncnn3C)cc(C)nc12` [Compound 155], the negative logarithm of the IC50 (pIC50) is not below 7.30.

On to `Cc1cc(-n2ncnc2C)c2cccc(OCc3c(Cl)cc(F)cc3[C@H](C)NC(=O)c3coc(C)n3)c2n1` [Compound 156], for which the negative logarithm of the IC50 (pIC50) was not below 7.30.

On to `Cc1cc(-n2ncnc2C)c2cccc(OCc3c(Cl)cc(F)cc3[C@H](C)NC(=O)c3ccon3)c2n1` [Compound 157], for which the pIC50 is not below 7.30.

Turning to `Cc1cc(-n2ncnc2C)c2cccc(OCc3c(Cl)cc(F)cc3[C@H](C)NC(=O)c3cc(C)on3)c2n1` [Compound 158], the pIC50 is not below 7.30.

For `Cc1cc(-n2ncnc2C)c2cccc(OCc3c(Cl)cc(F)cc3[C@H](C)NC(=O)c3cocn3)c2n1` [Compound 159], the pIC50 is not below 7.30.

With `Cc1cc(-n2ncnc2C)c2cccc(OCc3c(Cl)cc(F)cc3[C@H](C)NC(=O)C(C)(C)O)c2n1` [Compound 160], the pIC50 is not below 7.30.

Take `Cc1cc(-n2ncnc2C)c2cccc(OCc3c(Cl)cc(F)cc3[C@H](C)NC(=O)COC(F)(F)F)c2n1` [Compound 161]: the pIC50 is not below 7.30.

Regarding `Cc1cc(-c2ncnn2C)c2cccc(OCc3c(Cl)cc(F)cc3[C@H](C)NC(=O)c3cccnc3)c2n1` [Compound 162], the pIC50 is not below 7.30.

Consider `Cc1cc(-c2ncnn2C)c2cccc(OCc3c(Cl)cc(F)cc3[C@H](C)NC(=O)c3ccncc3)c2n1` [Compound 163], for which the pIC50 is not below 7.30.

As for `Cc1cc(-c2ncnn2C)c2cccc(OCc3c(Cl)cc(F)cc3[C@H](C)NC(=O)c3ccccn3)c2n1` [Compound 164], the negative-log IC50 (pIC50) is not below 7.30.

In the case of `CC[C@H](NC(=O)c1cocn1)c1cc(F)cc(Cl)c1COc1cccc2c(-n3ncnc3C)cc(C)nc12` [Compound 165], the negative logarithm of the IC50 (pIC50) is not below 7.30.

Regarding `CC[C@H](NC(=O)COC(F)F)c1cc(F)cc(Cl)c1COc1cccc2c(-n3ncnc3C)cc(C)nc12` [Compound 166], the pIC50 is not below 7.30.

With `CC[C@H](NC(=O)COC(F)(F)F)c1cc(F)cc(Cl)c1COc1cccc2c(-n3ncnc3C)cc(C)nc12` [Compound 167], the pIC50 was not below 7.30.

Consider `[2H][C@@](C)(NC(=O)COC(F)F)c1cc(F)cc(Cl)c1COc1cccc2c(-n3ncnc3C)cc(C)nc12` [Compound 168], for which the negative-log IC50 (pIC50) is not below 7.30.

Consider `CCc1ncnn1-c1cc(C)nc2c(OCc3c(Cl)cc(F)cc3[C@H](C)NC(=O)COC(F)F)cccc12` [Compound 169], for which the pIC50 was not below 7.30.

Regarding `CCc1ncnn1-c1cc(C)nc2c(OCc3c(Cl)cc(F)cc3[C@H](C)NC(=O)c3cocn3)cccc12` [Compound 170], the negative-log IC50 (pIC50) is not below 7.30.

Turning to `CCc1ncnn1-c1cc(C)nc2c(OCc3c(Cl)cc(F)cc3[C@H](C)NC(=O)C(C)(C)O)cccc12` [Compound 171], the negative-log IC50 (pIC50) was not below 7.30.

`CCc1ncnn1-c1cc(C)nc2c(OCc3c(Cl)cc(F)cc3[C@H](C)NC(=O)C(C)F)cccc12` (stereo partly drawn) [Compound 172]: the pIC50 was not below 7.30.

Take `Cc1cc(-n2ncnc2C)c2cccc(OCc3c(Cl)cc(F)cc3[C@H](C)NC(=O)CC(F)F)c2n1` [Compound 173]: the pIC50 is not below 7.30.

Regarding `Cc1cc(-n2ncnc2C)c2cccc(OCc3c(Cl)cc(F)cc3[C@H](C)NC(=O)C(F)F)c2n1` [Compound 174], the negative-log IC50 (pIC50) was not below 7.30.

In the case of `Cc1cc(-c2ccnn2C)c2cccc(OCc3c(Cl)cc(F)cc3[C@H](C)NC(=O)COC(F)F)c2n1` [Compound 175], the pIC50 is not below 7.30.

As to `Cc1cc(-c2ccnn2C)c2cccc(OCc3c(Cl)cc(F)cc3[C@H](C)NC(=O)C(F)F)c2n1` [Compound 176], the negative logarithm of the IC50 (pIC50) was not below 7.30.

Turning to `Cc1cc(-c2ncnn2C)c2cccc(OCc3c(Cl)cc(F)cc3[C@H](C)NC(=O)CC(F)(F)F)c2n1` [Compound 177], the pIC50 was not below 7.30.

Take `Cc1cc(-c2ncnn2C)c2cccc(OCc3c(Cl)cc(F)cc3[C@H](C)NC(=O)C(C)(F)F)c2n1` [Compound 178]: the pIC50 was not below 7.30.

In the case of `Cc1cc(-n2ncnc2C)c2cccc(OCc3c(Cl)cc(F)cc3[C@H](C)NC(=O)CC(F)(F)F)c2n1` [Compound 179], the pIC50 was not below 7.30.

Take `Cc1cc(-n2ncnc2C)c2cccc(OCc3c(Cl)cc(F)cc3[C@H](C)NC(=O)C(C)(F)F)c2n1` [Compound 180]: the negative logarithm of the IC50 (pIC50) is not below 7.30.

As to `[2H][C@@](C)(NC(=O)CC(F)(F)F)c1cc(F)cc(Cl)c1COc1cccc2c(-c3ncnn3C)cc(C)nc12` [Compound 181], the pIC50 was not below 7.30.

Turning to `[2H][C@@](C)(NC(=O)C(C)(F)F)c1cc(F)cc(Cl)c1COc1cccc2c(-c3ncnn3C)cc(C)nc12` [Compound 182], the pIC50 is not below 7.30.

Turning to `[2H][C@@](C)(NC(=O)C(F)F)c1cc(F)cc(Cl)c1COc1cccc2c(-c3ncnn3C)cc(C)nc12` [Compound 183], the pIC50 was not below 7.30.

Take `Cc1cc(-c2ccnn2C)c2cccc(OCc3c(Cl)cc(F)cc3[C@H](C)NC(=O)C(C)(C)O)c2n1` [Compound 184]: the negative logarithm of the IC50 (pIC50) is not below 7.30.

Regarding `Cc1cc(-c2[nH]ncc2C)c2cccc(OCc3c(Cl)cc(F)cc3[C@H](C)NC(=O)COC(F)F)c2n1` [Compound 185], the negative-log IC50 (pIC50) was not below 7.30.

As to `Cc1cc(-c2[nH]ncc2C)c2cccc(OCc3c(Cl)cc(F)cc3[C@H](C)NC(=O)C(F)F)c2n1` [Compound 186], the negative logarithm of the IC50 (pIC50) is 6.60 to 7.29.

For `Cc1cc(-c2[nH]ncc2C)c2cccc(OCc3c(Cl)cc(F)cc3[C@H](C)NC(=O)c3cnco3)c2n1` [Compound 187], the pIC50 was not below 7.30.

Take `Cc1cc(-c2[nH]ncc2C)c2cccc(OCc3c(Cl)cc(F)cc3[C@H](C)NC(=O)[C@@H](C)O)c2n1` [Compound 188]: the negative logarithm of the IC50 (pIC50) was not below 7.30.

Consider `Cc1cc(-c2[nH]ncc2C)c2cccc(OCc3c(Cl)cc(F)cc3[C@H](C)NC(=O)C(C)(C)O)c2n1` [Compound 189], for which the pIC50 is not below 7.30.

As for `Cc1cc(-c2ncnn2C)c2cccc(OCc3c(Cl)cc(F)cc3[C@H](CO)NC(=O)COC(F)F)c2n1` [Compound 190], the negative-log IC50 (pIC50) is not below 7.30.

With `Cc1cc(-c2ncnn2C)c2cccc(OCc3c(Cl)cc(F)cc3[C@H](CO)NC(=O)c3cnco3)c2n1` [Compound 191], the negative-log IC50 (pIC50) was not below 7.30.

For `Cc1cc(-c2ccnn2C)c2cccc(OCc3c(Cl)cc(F)cc3[C@H](C)NC(=O)[C@@H](C)O)c2n1` [Compound 192], the pIC50 is not below 7.30.

In the case of `Cc1cc(-n2ncnc2C)c2cccc(OCc3c(Cl)cc(F)cc3[C@H](C)NC(=O)C(C)F)c2n1` (stereo partly drawn) [Compound 193], the pIC50 was not below 7.30.

Turning to `Cc1cc(-c2ccnn2C)c2cccc(OCc3c(Cl)cc(F)cc3[C@H](C)NC(=O)CO)c2n1` [Compound 194], the negative logarithm of the IC50 (pIC50) was not below 7.30.

With `Cc1cc(-c2ccnn2C)c2cccc(OCc3c(Cl)cc(F)cc3[C@H](C)NC(=O)[C@H](C)O)c2n1` [Compound 195], the negative logarithm of the IC50 (pIC50) was not below 7.30.

With `Cc1cc(-c2ccnn2C)c2cccc(OCc3c(Cl)cc(F)cc3[C@H](C)NC(=O)c3cnco3)c2n1` [Compound 196], the negative-log IC50 (pIC50) was not below 7.30.

Regarding `Cc1cc(-c2ncnn2C)c2cccc(OCc3c(Cl)cc(F)cc3[C@H](C)NC(=O)CC(F)F)c2n1` [Compound 197], the pIC50 is not below 7.30.

As to `[2H][C@@](C)(NC(=O)c1cocn1)c1cc(F)cc(Cl)c1COc1cccc2c(-n3ncnc3C)cc(C)nc12` [Compound 198], the pIC50 is not below 7.30.

On to `[2H][C@@](C)(NC(=O)c1cocn1)c1cc(F)cc(Cl)c1COc1cccc2c(-c3ncnn3C)cc(C)nc12` [Compound 199], for which the pIC50 is not below 7.30.

Turning to `[2H]C([2H])([2H])[C@H](NC(=O)c1cocn1)c1cc(F)cc(Cl)c1COc1cccc2c(-c3ncnn3C)cc(C)nc12` [Compound 200], the pIC50 was not below 7.30.

As to `[2H]C([2H])([2H])[C@]([2H])(NC(=O)c1cocn1)c1cc(F)cc(Cl)c1COc1cccc2c(-c3ncnn3C)cc(C)nc12` [Compound 201], the negative-log IC50 (pIC50) was not below 7.30.

`[2H]C([2H])([2H])[C@H](NC(=O)COC(F)F)c1cc(F)cc(Cl)c1COc1cccc2c(-c3ncnn3C)cc(C)nc12` [Compound 202]: the negative-log IC50 (pIC50) was not below 7.30.
